This note sets out measurements from patent US8846695B2, “Treatment for diabetes in patients with inadequate glycemic control despite metformin therapy comprising a DPP-IV inhibitor” (Boehringer Ingelheim International GmbH, priority 2009, dated 2014).

A short description of data set [1]: Adverse events and hypoglycaemia in the 12-week add-on to metformin study. The data set is classed as in vivo, human. The settings on record: 1, 5 or 10 mg qd with metformin, 12 weeks. The source says:
In total, 106 patients (43.1%) experienced adverse events (AEs) with similar incidences across all treatments. Most frequently reported episodes were nasopharyngitis (7.5%), diarrhoea (3.3%), and nausea (3.0%). […] Ten patients (3.7%) experienced serious AEs but none of these events were considered drug-related.
The addition of BI 1356 to MET in patients with T2DM inadequately controlled on MET alone achieved clinically relevant and statistically significant reductions in HbA1c.

The conditions of data set [2]: human, in vivo.
Data set [3] in a line: 12-week randomized double-blind add-on to metformin study: HbA1c and FPG. More on the design: placebo corrected mean reduction in HbA1c: dose or concentration left out as unconfirmed.
Procedure: Effects were compared to add-on of placebo (PBO) or of open label glimepiride (GLIM; 1 to 3 mg qd) in a 12-week randomized, double-blind study.
The primary endpoint was change from baseline in HbA1c, adjusted for prior antidiabetic medication.
Data set [4] is described as follows: Thorough QT study, single dose, healthy female and male subjects (QTcI). The data set is classed as in vivo, human. The settings on record: therapeutic (5 mg) and supratherapeutic (100 mg). The protocol: A thorough QT study of BI 1356, a potent and selective dipeptidyl peptidase-4 inhibitor, was performed in healthy female and male subjects, using 5 mg (therapeutic dose) and 100 mg. The study was a randomised, single-dose, placebo-controlled, double-blind, four-way crossover study with open-label moxifloxacin (400 mg) as positive control. Triplicate 12-lead electrocardiograms (ECGs) of 10 seconds' duration were recorded for all subjects pre-dose and at various time points over a 24-h period after each treatment. The primary parameter was the subject-specific heart rate corrected QT interval (QTcI).

The mark [5] stands for this setting: 5 mg daily, 12 weeks, add-on to metformin.

Consider `CC#CCn1c(N2CCC[C@@H](N)C2)nc2c1c(=O)n(Cc1nc(C)c3ccccc3n1)c(=O)n2C` [BI 1356], for which the drug-related hypoglycaemia result in data set [1] was “no case of hypoglycaemia was reported”. Further, in data set [2], the “form and path of excretion” value is on record as “primarily excreted unchanged via the bile”. For the same compound, in data set [3] (setting [5]), the “percentage of patients achieving HbA1c lowering of ≧0.5% from baseline” value is on record as 53.2%, the “percentage of patients achieving HbA1c lowering of ≧1.0% from baseline” value came to 27.4% and the “percentage of patients achieving a HbA1c value” stood at 14.5%. Besides, the “time at which maximum glucose-lowering effects are reached” value in data set [3] (1, 5 and 10 mg once daily added to metformin, plateau thereafter) was found to be 8 weeks. Besides, the “prolongation of the QT interval” value in data set [4] is “did not prolong the QT interval”.

For `CCC1=C(C)CN(C(=O)NCCc2ccc(S(=O)(=O)NC(=O)N[C@H]3CC[C@H](C)CC3)cc2)C1=O` [GLIM, glimepiride, reference compound], the “placebo corrected mean reduction in HbA1c” value in data set [3] (Week 12, add-on to metformin, n=64) is on record as −0.90%.
